In patent EP2545915A1, “2-amino-2-oxoethyl trans-3-[5-(6-methoxy-naphtalen-1-yl)-1,3-dioxan-2-yl]propyl-carbamate for use in the treatment of persistent cancer pain” (SANOFI, priority 2011, dated 2013):
Like-named read-outs stand apart in the source and are kept apart here.

System: UDP-glucuronosyl transferase
Assay type: in vitro ADME, human
Conditions: for % Control (M3G Formation Activity) / % Control (M6G Formation Activity): morphine 2mM, HLM protein 0.5 mg/mL, 30 min
Procedure: Incubations were conducted in 2-mL polypropylene centrifuge tubes. Incubation mixtures containing HLM suspension and alamethicin (25 µg/mL) in 0.1 M potassium phosphate buffer (pH 7.4), were placed on wet ice for 5 min. […] Reactions were initiated by the addition of 50 mM UDPGA spiking solution. […] Samples were incubated aerobically in a water bath at 37 °C for the required amount of time and reactions terminated by the addition of 400 µL of the appropriate quench solution. The 2-mL centrifuge tubes were vortex mixed and stored in a -20 °C freezer for ca. 20 min prior to centrifugation at 13.3 × g, 4 °C for 10 min. Supernatants were analyzed by LC-MS/MS for morphine metabolites formation.
UGT-dependent activities were determined by monitoring the formation of enzyme specific metabolites from marker substrates. […] Incubation with selective inhibitors (positive control) was performed at a concentration above their established IC50 for the confirmation of enzyme activity and inhibitory effects.
Incubations were performed in 2-mL centrifuge tubes. Incubation mixtures containing HLM suspension and alamethicin (25 µg/mL) in 0.1 M potassium phosphate buffer (pH 7.4), were placed on wet ice for 5 min. […] Reactions were initiated by the addition of UDPGA. The final incubation mixture contained 0.5 mg/mL HLM, 2 mM MgCl2, 5 mM UDPGA, various concentration of Compound A or a selective inhibitor. Samples were incubated aerobically in a water bath at 37 °C for 30 min. The incubation systems were terminated by the addition of a 400-µL quenching solution. The 2-mL centrifuge tubes were vortex mixed and stored in a -20 °C freezer for approximately 20 min prior to centrifugation at 13.3 × g, 4 °C for 10 min. Supernatants were analyzed by LC-MS/MS.
Percent of Control = Cmet ÷ Ccontrol × 100%
Cmet: Concentration of the metabolite in the incubations in the presence of Compound A or selective inhibitor
Ccontrol: Concentration of the enzyme-specific metabolite in the incubations in the absence of Compound A and selective inhibitor
The IC50 for Compound A was estimated by non-linear regression analysis of individual sets of percent inhibition values using GraphPad Prism 5.

[1] = positive control incubation, same conditions (2 mM morphine, HLM 0.5 mg/mL, 30 min)

## COc1ccc2c(cccc2[C@H]2CO[C@H](CCCNC(=O)OCC(N)=O)OC2)c1 [Compound A, 2-amino-2-oxoethyl trans-3-[5-(6-methoxy-naphtalen-1-yl)-1,3-dioxan-2-yl]propyl-carbamate]
2 mM morphine in HLM, Compound A 0.5 to 250 µM, M3G and M6G formation monitored
  IC50: could not be estimated
Compound A 0.5 µM
  % Control (M3G Formation Activity): 97.7%
  % Control (M6G Formation Activity): 96.9%
Compound A 1.0 µM
  % Control (M3G Formation Activity): 96.2%
  % Control (M6G Formation Activity): 94.4%
Compound A 5.0 µM
  % Control (M3G Formation Activity): 106.0%
  % Control (M6G Formation Activity): 102.4%
Compound A 10 µM
  % Control (M3G Formation Activity): 107.9%
  % Control (M6G Formation Activity): 110.4%
Compound A 25 µM
  % Control (M3G Formation Activity): 108.3%
  % Control (M6G Formation Activity): 105.8%
Compound A 50 µM
  % Control (M3G Formation Activity): 105.7%
  % Control (M6G Formation Activity): 108.3%
Compound A 100 µM
  % Control (M3G Formation Activity): 92.7%
  % Control (M6G Formation Activity): 97.4%
Compound A 250 µM
  % Control (M3G Formation Activity): 94.2%
  % Control (M6G Formation Activity): 96.5%
According to in vitro results
  drug interaction with morphine: no significant drug interaction
Human liver microsomes, formation of morphine-3-glucuronide and morphine-6-glucuronide monitored
  inhibition of morphine metabolism: no inhibition

## CC(=O)N1CCN(c2ccc(OCC3COC(Cn4ccnc4)(c4ccc(Cl)cc4Cl)O3)cc2)CC1 (stereo not drawn) [ketoconazole, reference compound]
[1]
  inhibition to M3G activity: ≥ 98.5%
  inhibition to M6G activity: ≥ 98.5%
